Source: patent publication US20240366728A1, “Treatment of Diabetes Mellitus” (Carmot Therapeutics Inc., priority 2023, published 2024)
Marks after values point to notes of the source that are not given here.

Key:
[1] = tested on: lean participants and participants with overweight/obesity; test: Phase 1 first-in-human SAD/MAD study: safety and tolerability; format: in vivo; settings: for safety and tolerability (in words): no up-titration
From the text: This was a randomized, double-blind, placebo-controlled, dose escalation first-in-human (FIH) conducted from December 2018 to January 2020 at a study center in Victoria, Australia in accordance with principles of the Declaration of Helsinki (Ethical Principles for Medical Research Involving Human Subjects), and the NHMRC National Statement on Ethical Conduct in Human Research 2007 (updated 2018). (Registered on the Australian New Zealand Clinical Trials Registry [ANZCTR] under the identifier: ACTRN12618001988246).
Daily doses were given on Day 2 to Day 14. Cohort M1 was dosed with the highest dose level, determined based on the safety and PK data from the preceding Part 1 (SAD), and doses were decreased sequentially for Cohorts M2 and M3 (FIG. 46B).
Following study drug administration, Part 1 (SAD) participants underwent safety and other assessments on Day 3 and Day 8 (±1 day, outpatient) and were followed for at least 30 days after the last administered dose of study drug. Part 2 (MAD) participants underwent safety and other assessments and discharged in the absence of clinically significant safety signals, following completion of all Day 16 assessments. All participants were followed for at least 30 days after the last administered dose of study drug. Participants were follow-up for safety and other assessments on Day 21 (±2 days, outpatient) and Day 44 (±3 days, teleconference).
The primary endpoints were the incidence, nature and severity of AEs, safety laboratory analytes, vital signs, electrocardiograms (ECGs), and incidence of events of special interest (AESI).
Adverse events were coded using the Medical Dictionary for Regulatory Activities (MedDRAR Version 21.1). The number of participants experiencing treatment-emergent AEs (TEAEs) and number of individual TEAEs are summarized by treatment, SOC, and PT. TEAEs are also summarized by severity and by relationship to study drug. AESIs are listed and summarized by treatment group. Listings of AEs leading to discontinuation of the study, SAEs and deaths, are provided as applicable.

[2] = tested on: participants with obesity and participants with T2DM; test: CT-868-003 crossover study: safety; format: in vivo, human; settings: for Infections and infestations / Urinary tract infection: Table 24
From the text: Safety assessments of this study included treatment-emergent adverse events (TEAEs), serious adverse events (SAEs), adverse events of special interest (AESI), vital signs, 12-lead electrocardiogram (ECG), clinical lab evaluations, and physical exam.
Safety assessments which occurred throughout the entire study, included monitoring of incidence and severity of AEs, treatment-emergent AEs (TEAEs) and AEs of special interest (AESIs) (e.g., GI events, hypoglycemia), clinical laboratory abnormalities (ECGs, chemistry, hematology, and urinalysis), and changes in vital sign measurements (BP, heart rate, respiratory rate, and aural temperature).
AE terms recorded by the Investigator were coded to system organ class (SOC) and preferred term (PT) using the Medical Dictionary for Regulatory Activities (MedDRA) version 24.0. Severity was collected using the Common Terminology Criteria for AEs (CTCAE) version 5.0 Toxicity Grade. Events with missing severity were summarized as Grade 3. TEAEs summarized by severity counted each participant once for the maximum severity within each SOC and PT within each in-house treatment period and overall. TEAEs marked with a relationship to study treatment as definitely, probable, possible, or missing were considered as related TEAEs. Events with missing relationship to study treatment were summarized as related. The number and percentage of participants with TEAEs were summarized by MedDRA-coded SOCs and PTs.

[3] = in vivo; settings: male, CD-1, mouse, sc
Experimental: Blood was kept on ice until centrifuged at 4600 rpm for five minutes at 4° C. Plasma was stored at −80° C. until analysis. Compounds were extracted from plasma and quantified against a standard curve using an AB Sciex 7500+LC-MS/MS system (FIG. 5).

[4] = target: human GLP-1R (Homo sapiens, UniProt P43220); test: cAMP accumulation, SNAP-human GLP-1R CHO-K1 cells
[5] = tested on: lean C57BL/6J mice; test: intraperitoneal glucose tolerance test in lean mice
[6] = tested on: GLP-1R+/+ and GLP-1R-/- mice; test: intraperitoneal glucose tolerance test in GLP-1R+/+ and GLP-1R-/- mice
[7] = Part 1 (participants with obesity)
[8] = Part 2 (participants with T2DM)

Chain of human GLP-1R (P43220 24-463): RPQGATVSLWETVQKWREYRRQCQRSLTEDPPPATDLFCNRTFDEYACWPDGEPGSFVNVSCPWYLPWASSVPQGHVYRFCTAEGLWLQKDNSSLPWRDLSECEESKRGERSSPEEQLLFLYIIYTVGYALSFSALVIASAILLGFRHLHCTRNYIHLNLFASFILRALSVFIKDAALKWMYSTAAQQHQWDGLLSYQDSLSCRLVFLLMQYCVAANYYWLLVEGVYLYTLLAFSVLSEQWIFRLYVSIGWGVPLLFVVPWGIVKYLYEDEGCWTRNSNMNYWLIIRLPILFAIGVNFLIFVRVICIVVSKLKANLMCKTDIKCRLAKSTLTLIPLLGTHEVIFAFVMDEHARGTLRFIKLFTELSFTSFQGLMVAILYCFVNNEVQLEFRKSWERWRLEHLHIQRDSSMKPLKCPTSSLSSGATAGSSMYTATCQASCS

CCCCCCCCCCCCCCCC(=O)N[C@@H](CCC(=O)NCCCC[C@H](NC(=O)[C@H](CO)NC(=O)[C@@H]1CCCN1C(=O)[C@@H]1CCCN1C(=O)[C@@H]1CCCN1C(=O)[C@H](C)NC(=O)CNC(=O)[C@H](CO)NC(=O)[C@H](CO)NC(=O)[C@@H]1CCCN1C(=O)CNC(=O)CNC(=O)[C@H](C)NC(=O)[C@H](CC(C)C)NC(=O)[C@H](CC(C)C)NC(=O)[C@H](Cc1c[nH]c2ccccc12)NC(=O)[C@H](CC(N)=O)NC(=O)[C@@H](NC(=O)[C@H](Cc1ccccc1)NC(=O)[C@H](CCC(=O)O)NC(=O)C(C)(C)NC(=O)[C@H](C)NC(=O)[C@H](C)NC(=O)[C@H](CCC(N)=O)NC(=O)[C@H](CCCCN)NC(=O)[C@H](CC(=O)O)NC(=O)[C@H](CC(C)C)NC(=O)[C@H](Cc1ccc(O)cc1)NC(=O)[C@@H](NC(=O)[C@H](CO)NC(=O)[C@H](Cc1ccc(O)cc1)NC(=O)[C@H](CC(=O)O)NC(=O)[C@H](CO)NC(=O)[C@@H](NC(=O)[C@H](Cc1ccccc1)NC(=O)[C@@H](NC(=O)CNC(=O)[C@H](CCC(=O)O)NC(=O)CSCC(=O)NCCN1CCCCC1=O)[C@@H](C)O)[C@@H](C)O)[C@@H](C)CC)C(C)C)C(N)=O)C(=O)O [CT-868]
participants reporting only nausea ([1]; MAD 0.75 mg): 2/6
participants with abdominal pain ([1]; MAD 1.5 mg): 1/6
participants with constipation ([1]; MAD 1.5 mg): 4/6
participants with diarrhea ([1]; MAD 1.5 mg): 1/6
participants with gastrointestinal symptoms ([1]; MAD 1.5 mg): 4/6
participants with nausea ([1]; MAD 1.5 mg): 2/6
participants with vomiting ([1]; MAD 1.5 mg): 2/6
mild to moderate gastrointestinal symptoms (in words) ([1]; MAD 5.0 mg): reported by all six participants
drug withdrawal due to drug-related TEAEs (in words) ([1]; MAD 5.0 mg, mild nausea and vomiting): One participant
maximum tolerated single dose ([1]; SAD): 7.5 mg
participants with drug-related TEAEs ([1]; SAD 7.5 mg, two events of nausea and one of diarrhea): 50%
participants with gastrointestinal TEAEs ([1]; SAD 11.0 mg, twelve events, all drug-related): 100%
SAEs and drug-induced hypoglycemia (in words) ([1]; SAD and MAD phases): no serious adverse events (SAEs) or drug-induced hypoglycemia events
safety and tolerability (in words) ([1]; single doses up to 7.5 mg, up to 1.5 mg/day for 14 days): generally safe and well tolerated
safety and tolerability (in words) ([1]; up to 11 mg single dose, up to 5 mg/day for 14 days): safe and well tolerated
Infections and infestations [2, 7]: 0 n (%)
Urinary tract infection [2, 7]: 0 n (%)
Infections and infestations [2, 8]: 0 n (%)
Urinary tract infection [2, 8]: 0 n (%)
AEs of Special Interest (AESI) Total ([2]; in vivo): 10 (50.0) n (%)
Any AESIs, Grade 2 ([2]; in vivo): 1 (8.3%) n (%)
Arthralgia ([2]; in vivo): 0 n (%)
At Least 1 Study Drug Related TEAE ([2]; in vivo): 9 (45.0) n (%)
At Least 1 TEAE ([2]; in vivo): 14 (70.0) n (%)
Back pain ([2]; in vivo): 0 n (%)
Coagulation test abnormal ([2]; in vivo): 0 n (%)
Dermatitis ([2]; in vivo): 0 n (%)
GI side effects (in words) ([2]; in vivo): mostly mild and transient
Hypoglycemia ([2]; in vivo): 7 (35.0) n (%)
Injection Site Reaction ([2]; in vivo): 1 (5.0) n (%)
Investigations ([2]; in vivo): 0 n (%)
Musculoskeletal and connective tissue disorders ([2]; in vivo): 0 n (%)
SAEs ([2]; in vivo): 0 n (%)
Treatment Discontinuation ([2]; in vivo): 1 (5.0)* n (%)
participants with Grade 1 hypoglycemia events ([2]; in vivo): 7 participants
tolerability (in words) ([2]; in vivo): well tolerated
vital signs, ECG parameters, laboratory values (in words) ([2]; in vivo): no clinically significant CT-868-related changes
AUC(0-inf) [3]: 7.92 µM·h
half-life [3]: 7 h
Emax ([4]; CHO-K1, read-out: hGLP-1R cAMP (-alb) % Emax): 92%
EC50 ([4]; potency activating cAMP at human GLP-1R, value of b126): ~170 pM

CCCCCCCCCCCCCCCC(=O)N[C@@H](CCC(=O)NCCCC[C@H](NC(=O)[C@H](CO)NC(=O)[C@@H]1CCCN1C(=O)[C@@H]1CCCN1C(=O)[C@@H]1CCCN1C(=O)[C@H](C)NC(=O)CNC(=O)[C@H](CO)NC(=O)[C@H](CO)NC(=O)[C@@H]1CCCN1C(=O)CNC(=O)CNC(=O)[C@H](C)NC(=O)[C@H](CC(C)C)NC(=O)[C@H](CC(C)C)NC(=O)[C@H](Cc1c[nH]c2ccccc12)NC(=O)[C@H](CC(N)=O)NC(=O)[C@@H](NC(=O)[C@H](Cc1ccccc1)NC(=O)[C@H](CCC(=O)O)NC(=O)C(C)(C)NC(=O)[C@H](C)NC(=O)[C@H](C)NC(=O)[C@H](CCC(N)=O)NC(=O)[C@H](CCCCN)NC(=O)[C@H](CC(=O)O)NC(=O)[C@H](CC(C)C)NC(=O)[C@H](Cc1ccc(O)cc1)NC(=O)[C@@H](NC(=O)[C@H](CO)NC(=O)[C@H](Cc1ccc(O)cc1)NC(=O)[C@H](CC(=O)O)NC(=O)[C@H](CO)NC(=O)[C@@H](NC(=O)[C@H](Cc1ccccc1)NC(=O)[C@@H](NC(=O)CNC(=O)[C@H](CCC(=O)O)NC(=O)CSCC(=O)NCCN1C(=O)CSC1=O)[C@@H](C)O)[C@@H](C)O)[C@@H](C)CC)C(C)C)C(N)=O)C(=O)O [CT-859]
in vivo potency vs liraglutide (in words) [5]: more potent than liraglutide in vivo
duration of glucose lowering (in words) ([5]; lean C57BL/6J and DIO mice, single 20 nmol/kg): remained efficacious up to 48 hours post-administration
ED50 for improving post-prandial glucose in ipGTT ([5]; lean C57BL/6J mice, 4 h after SC dose): 0.46 nmol/kg
acute effect on GLUC AUC (in words) ([5]; lean mice, 20 nmol/kg, 4 h after administration): acute reduction of glucose (GLUC) AUC
reduction in GLUC AUC vs. vehicle ([5]; lean mice, 20 nmol/kg, 48 hours): 45%
GLUC AUC during IPGTT (in words) ([6]; GLP-1R knockout mice, 20 nmol/kg): no effect on GLUC AUC
glucose levels lowered ([6]; GLP-1R+/+ mice, 200 nmol/kg): 75%
glucose lowering (in words) ([6]; GLP-1R+/+ mice, 20 and 200 nmol/kg): lowered the post-prandial glucose levels equally and significantly compared to vehicle
glucose lowering (in words) ([6]; GLP-1R-/- mice, 20 nmol/kg): ineffective at lowering glucose levels
glucose levels lowered compared to vehicle ([6]; GLP-1R-/- mice, 200 nmol/kg): 46%
